Earlier results in article PMC9774438, “Effects of Synthetic Short Cationic Antimicrobial Peptides on the Catalytic Activity of Myeloperoxidase, Reducing Its Oxidative Capacity” (Antioxidants, 2022).
Read-outs that look alike come from different tables or passages of the source.

Tested on: MPO
Conditions: cited from earlier work; for peroxidase substrate behaviour of free amino acid: literature statement
Description: Free tyrosine is known to be a peroxidase substrate, reacting rapidly with both Compounds I and II. […] MPO-catalyzed oxidation of tyrosine occurs in the absence as well as presence of chloride, which is accompanied by hastened HOCl production. […] In addition to cysteine, pept_1545 contains tryptophan, another redox active amino acid. […] Fluorescence measurements (λex = 290 nm, λem = 310–450 nm) were ...

SMILES | bimolecular rate constant for reaction with Compound I (free tyrosine, ref [42]) [M⁻¹ s⁻¹] | bimolecular rate constant for reaction with Compound II (free tyrosine, ref [42]) [M⁻¹ s⁻¹] | peroxidase substrate behaviour of free amino acid | bimolecular rate constant for reaction with Compound I (free cysteine, ref [50]) [M⁻¹ s⁻¹] | bimolecular rate constant for reaction with Compound II (free cysteine, ref [50]) [M⁻¹ s⁻¹]
N[C@@H](Cc1ccc(O)cc1)C(=O)O [tyrosine] | 770000 | 16000 | accelerates MPO turnover |  | 
N[C@@H](CS)C(=O)O [cysteine] |  |  | poor peroxidase substrate | 4100 | < 10
N[C@@H](Cc1c[nH]c2ccccc12)C(=O)O [tryptophan] |  |  | poor peroxidase substrate |  | 
